Experimental data from publication PMC7912516, “New Antimicrobials Based on the Adarotene Scaffold with Activity against Multi-Drug Resistant Staphylococcus aureus and Vancomycin-Resistant Enterococcus” (Antibiotics, 2021).
Values joined by “and” are separate entries in the source; they are usually repeats but may differ in a detail not shown here. Equal entries are not always repeated. Where two headings read alike, the source gives them in different places.

Key:
[1] = test system: S. aureus strain 1 (MDR clinical isolate, MRSA, mecA positive); experiment: MIC/MBC by broth micro-dilution (CLSI); assay type: cell-based, Staphylococcus aureus; details: S. aureus Strain 1; for MBC: in square brackets
Protocol: (§1) The compounds were initially tested with a methicillin-resistant S. aureus and an E. faecalis clinical isolates (details in the experimental section), two MDR strains according to definition by Magiorakos et al.. The activity of studied compounds was assessed by broth micro-dilution method. Minimal Inhibitory Concentration (MIC), and Minimal Bactericidal Concentration (MBC) were determined and possible bacteriostatic or bactericidal activity was also investigated.
(§2) MICs and MBCs were determined according to CLSI (Clinical and Laboratory Standards Institute) guidelines, in triplicate. Results are shown as modal values of the three replicates. According to MIC and MBC data, the killing rate was calculated as the ratio between MBC and MIC on which basis it is possible to define the compounds tested as bactericides (killing rate = 1–4), or bacteriostatic (killing rate > 4).
(§3) Preparation of the solution containing molecules: for each molecule to be tested, solutions were made as DMSO stock, with a concentration of 2.560 mg/mL. Scalar dilutions were than prepared directly on plates by using Mueller Hinton Broth (MHB) as a growth medium (range 0.5–256 µg/mL).
(§4) Bacterial suspension preparation: cryostrains preserved at −80 °C were recovered by incubation in growth medium (Brain Heart Infusion Broth, BHI) for 24–48 h at 35 ± 2 °C followed by passages in agar growth medium (Columbia Blood Agar). Colonies with less than 30 h were suspended in MHB with the purpose to prepare a bacterial suspension with a turbidity of 0.5 MF, containing approximately 1.5 × 10^8 cfu/mL. This suspension was than diluted in MHB until reaching a final concentration of 5 × 10^4 CFU/well. Simultaneously, check in broth-microdilution only with solvent (in order to exclude that the effect of growth inhibition might be due to the drug solution solvent), positive growth control in absence of DMSO and drug, and negative purity control only with injection broth were performed.
S. aureus strain 1 (collection, MDR): mecA positive; MRSA, β-lactamase positive, resistant to ciprofloxacin, gentamicin and erythromycin.

[2] = test system: E. faecalis strain 1 (MDR clinical isolate); experiment: MIC/MBC by broth micro-dilution (CLSI); assay type: cell-based, Enterococcus faecalis; details: for MBC: in square brackets
Protocol: as §1, §2, §3, §4
E. faecalis strain 1 (collection, MDR) vanA/B negative; aminoglycosides high-level resistant to aminoglycosides (gentamicin and streptomycin) and ampicillin.

[3] = test system: S. aureus ATCC 25923 (reference strain); experiment: MIC/MBC by broth micro-dilution (CLSI); assay type: cell-based; details: Staphylococcus aureus; for MIC: ATCC25923, modal value
Protocol: (§5) To expand the previously obtained results compounds 16 and 17 were also tested on wider a selection of strains: two other MDR S. aureus and E. faecalis clinical isolates, the S. aureus ATCC 25923 and the E. faecalis ATCC 51299 reference strains. Compound 2, which was endowed with low antimicrobial activity, was tested as well, to confirm its low efficacy. Adarotene was used as control compound (Table 2).
as §2, §3, §4
S. aureus ATCC 25923 (reference strain): mecA negative; multi-susceptible.

[4] = test system: S. aureus strain 2 (MDR clinical isolate); experiment: MIC/MBC by broth micro-dilution (CLSI); assay type: cell-based; details: Staphylococcus aureus, modal value
Protocol: as §5, §2, §3, §4
S. aureus strain 2 (collection, MDR): mecA negative; β-lactamase positive, resistant to erythromycin, gentamicin, clindamycin and fusidic acid.

[5] = test system: E. faecalis ATCC 51299 (reference strain, vanB positive); experiment: MIC/MBC by broth micro-dilution (CLSI); assay type: cell-based; details: Enterococcus faecalis; for MIC: ATCC51299, modal value
Protocol: as §5, §2, §3, §4
E. faecalis ATCC 51299 (reference strain): vanB positive.

[6] = test system: E. faecalis strain 2 (MDR clinical isolate); experiment: MIC/MBC by broth micro-dilution (CLSI); assay type: cell-based; details: Enterococcus faecalis, modal value
Protocol: as §5, §2, §3, §4
E. faecalis strain 2 (collection, MDR) vanA/B negative; aminoglycosides high-level resistant to aminoglycosides (gentamicin and strseptomycin) and ampicillin.

tumor cell line IGROV-1 = details: ± SD, ref [13], read-out: IC50 (concentration required for 50% inhibition of cell growth); cited from earlier work
[7] = test system: methicillin-resistant S. aureus (MRSA) strain MW2; design: method as in PMID 29590091; details: ref [12]; cited from earlier work
[8] = test system: tumor cell line H-460 NCI; experiment: Cytotoxic activity, inhibition of cell growth; assay type: cell-based; details: Homo sapiens, NCI-H460; H-460 cell line, unpublished results; ± SD; read-out: IC50 (concentration required for 50% inhibition of cell growth)
Description: Table 1 Antimicrobial activity of adarotene derivatives 1–20 against MDR clinical strains of S. aureus and E. faecalis and cytotoxic activity. | column: IC50 ^a (µM)

[9] = Staphylococcus aureus, MRSA, modal value of three replicates, read-out: MIC
[10] = Staphylococcus aureus, MRSA, modal value, read-out: MIC
[11] = Staphylococcus aureus, MRSA, modal value
[12] = Enterococcus faecalis, modal value
[13] = Enterococcus faecalis, modal value of three replicates, read-out: MIC
[14] = Enterococcus faecalis, modal value, read-out: MIC
[15] = modal value of three replicates

| SMILES | MIC [1, 9] [µg/mL] | MIC [1, 10] [µM] | MBC [1, 11] | MBC [2, 12] | MIC [2, 13] [µg/mL] | MIC [2, 14] [µM] | MBC ([3]; ATCC25923, in square brackets, modal value) | MIC [3] | MBC ([4]; in square brackets) | MIC [4] | MBC ([5]; ATCC51299, in square brackets, modal value) | MIC [5] | MBC ([6]; in square brackets) | MIC [6] | IC50 (tumor cell line IGROV-1) [µM] | activity against MRSA strain MW2 [7] | MIC [1, 15] [µg/mL] | MIC [2, 15] [µg/mL] | IC50 [8] [µM] |
| --- | --- | --- | --- | --- | --- | --- | --- | --- | --- | --- | --- | --- | --- | --- | --- | --- | --- | --- | --- |
| O=C(O)/C=C/c1ccc(-c2ccc(O)c(C34CC5CC(CC(C5)C3)C4)c2)cc1 [Adarotene, adarotene] | 8 | 21 | 16 µg/mL and 42 µM | 32 µg/mL and 85 µM | 1 | 3 | 16 µg/mL and 42 µM | 8 µg/mL and 21 µM | 8 µg/mL and 21 µM | 4 µg/mL and 10 µM | 32 µg/mL and 84 µM | 2 µg/mL and 5 µM | 32 µg/mL and 84 µM | 4 µg/mL and 10 µM | 0.23 ± 0.08 | – | – | – | – |
| O=C(O)c1ccc2cc(-c3ccc(O)c(C45CC6CC(CC(C6)C4)C5)c3)ccc2c1 [CD437] | – | – | – | – | – | – | – | – | – | – | – | – | – | – | – | exhibit activity | – | – | – |
| O=C(O)c1ccc(-c2ccc3cc(O)c(C45CC6CC(CC(C6)C4)C5)cc3c2)cc1 [CD1530] | – | – | – | – | – | – | – | – | – | – | – | – | – | – | – | exhibit activity | – | – | – |
| O=C(O)C=Cc1ccc(-c2ccc(OCCCCO)c(C34CC5CC(CC(C5)C3)C4)c2)cc1 [Compound 2, 3-[3′-adamantan-1-yl-4′-(hydroxybutoxy)-biphenyl-4-yl]-acrylic acid] | > 256 | 573 | – | – | > 256 | 287 | – | 256 µg/mL and 572 µM | – | 256 µg/mL and 572 µM | – | 64 µg/mL and 143 µM | – | 128 µg/mL and 286 µM | – | – | 256 | 128 | – |
| CCCCC/C=C\C/C=C\CCCCCCCC(=O)Oc1ccc(-c2ccc(/C=C/C(=O)O)cc2)cc1C12CC3CC(CC(C3)C1)C2 [Compound 3] | 32 | 50 | – | – | 128 | 201 | – | – | – | – | – | – | – | – | – | – | – | – | 7.8 ± 0.7 |
| N#C/C(=C\c1ccc(-c2ccc(O)c(C34CC5CC(CC(C5)C3)C4)c2)cc1)C(=O)O [Compound 9] | 2 to 4 | 5 | 4 µg/mL and 10 µM | 4 µg/mL and 10 µM | 1 to 4 | 2 | – | – | – | – | – | – | – | – | – | – | 2 | 1 | > 10 |
